Literature values in publication PMC12296474, “Nano-Amounts of Glucagon Premixed With Fast-Acting Insulin Lispro: Effect on Insulin Absorption in Pigs” (Current Therapeutic Research, Clinical and Experimental, 2025).

Test system: subcutaneous blood flow
Details: healthy subjects
Description: We focused our proof-of-concept experiments on adding nanogram doses of glucagon to Lyumjev^Ⓡ, the most fast-acting insulin formulation available on the market. As previously discussed, we believe glucagon may increase insulin absorption through significant but very localized subcutaneous vasodilation. Therefore, it is noteworthy that when glucagon was added to Lyumjev^Ⓡ, an insulin formulation that already contains 10 ng of the vasodilator treprostinil per unit of insulin, we observed even faster insulin absorption. This effect was not observed in experiments with glucagon added to Humalog^Ⓡ. ...

glucagon
Enhancement of subcutaneous blood flow: 4% to 500
